The term IC50 denotes the concentration that inhibits the measured activity by half. A low value points to greater potency in that assay. Usually GI50 stands for the concentration at which growth is held to half of that of the control.

The results in this text go back to ChEMBL document CHEMBL4400557, “The potential of click reactions for the synthesis of bioactive triterpenes” (Bioorg Med Chem Lett, 2019).

Assay [1] in a line: Inhibition of glycogen phosphorylase (unknown origin). Set-up: species or system Homo sapiens.
The test system of another assay is CCRF-CEM. Briefly: Cytotoxicity in human CCRF-CEM cells incubated for 72 hrs by SRB assay. In kind it is functional, cell-based. (The SRB assay estimates cell density from bound dye.)
The next assay deals with AGS. Kind of assay: Antiproliferative activity against human AGS cells after 3 days by MTT assay. It counts as functional, cell-based. Particulars: 72 h. In general terms: Formazan colour is commonly taken as a measure of viable cells.
The next assay relates to MDA-MB-231. Kind of assay: Antiproliferative activity against human MDA-MB-231 cells by SRB assay. It counts as functional.
In a further assay the test system is KB. Briefly: Antiproliferative activity against human KB cells. It counts as functional, cell-based.
The nature of assay [2]: Inhibition of rabbit muscle glycogen phosphorylase. More on the design: species or system Oryctolagus cuniculus.
A further assay has as its system HL-60. Briefly: Antiproliferative activity against human HL60 cells by MTT assay. It counts as functional, cell-based.
The nature of assay [3]: Antiproliferative activity against human A375-S2 cells after 72 hrs by MTT assay. The note with it: A375-S2, 72 h. It counts as functional, cell-based.
The test system of a further assay is HT-1080. Kind of assay: Antiproliferative activity against human HT1080 cells after 72 hrs by MTT assay. It counts as functional, cell-based. Particulars: HT-1080, 72 h.
Assay [4] has as its system Human immunodeficiency virus 1. Kind of assay: Antiviral activity against HIV-1 NL4-3. It counts as functional, organism-based. Particulars: Human immunodeficiency virus 1, NL4-3.

With `CC1(C)CC[C@]2(C(=O)O)CC[C@]3(C)C(=CC[C@@H]4[C@@]5(C)CC[C@H](OCc6cn(CCCCCCn7cc(CO[C@H]8CC[C@]9(C)[C@H]%10CC=C%11[C@@H]%12CC(C)(C)CC[C@]%12(C(=O)O)CC[C@@]%11(C)[C@]%10(C)CC[C@H]9C8(C)C)nn7)nn6)C(C)(C)[C@@H]5CC[C@]43C)[C@@H]2C1`, 2.59 µM corresponded to half-maximal inhibition in [1] (IC50).
Same read-out and setting: for `CO[C@H]1O[C@H](Cn2cc(COC(=O)[C@]34CCC(C)(C)C[C@H]3C3=CC[C@@H]5[C@@]6(C)CC[C@H](O)C(C)(C)[C@@H]6CC[C@@]5(C)[C@]3(C)CC4)nn2)[C@@H](O)[C@H](O)[C@H]1O` the value was 1.4 µM.
Take `C=C(Cn1cc(-c2ccccc2C=O)nn1)[C@@H]1CC[C@]2(C(=O)O)CC[C@]3(C)[C@H](CC[C@@H]4[C@@]5(C)CC[C@H](OC(C)=O)C(C)(C)[C@@H]5CC[C@]43C)[C@@H]12`: in the assay with CCRF-CEM, the midpoint of inhibition, the IC50, lay at 3.3 µM.
Take `CC1(C)CC[C@]2(C(=O)O)CC[C@]3(C)C(=CC[C@@H]4[C@@]5(C)CC[C@H](OC(=O)CCc6cn(Cc7ccc(Cl)cc7)nn6)C(C)(C)[C@@H]5CC[C@]43C)[C@@H]2C1`: in the assay on AGS, inhibition was half-maximal at 8.9 µM (IC50).
Regarding `C[C@H]1[C@H](C)CC[C@]2(C(=O)OCCCn3cc(COC(=O)[C@]45CC[C@@H](C)[C@H](C)[C@H]4C4=CC[C@@H]6[C@@]7(C)CC[C@H](O)C(C)(C)[C@@H]7CC[C@@]6(C)[C@]4(C)CC5)nn3)CC[C@]3(C)C(=CC[C@@H]4[C@@]5(C)CC[C@H](O)C(C)(C)[C@@H]5CC[C@]43C)[C@H]12`, it took 1.4 µM to inhibit growth in the assay on MDA-MB-231 by half (GI50).
Turning to `C=C(C)[C@@H]1CC[C@]2(C(=O)NCc3cn(C4CC(n5cc(C)c(=O)[nH]c5=O)OC4CO)nn3)CC[C@]3(C)[C@H](CC[C@@H]4[C@@]5(C)CC[C@H](OC(=O)CC(=O)OC)C(C)(C)[C@@H]5CC[C@]43C)[C@@H]12` (stereo partly specified), the IC50 in the assay on KB is 8.1 µM.
Consider `CCCCCCCCC(=O)OCc1cn(CC(=O)O[C@H]2CC[C@]3(C)[C@H]4CC=C5[C@@H]6CC(C)(C)CC[C@]6(C(=O)O)CC[C@@]5(C)[C@]4(C)CC[C@H]3C2(C)C)nn1`, for which, in assay [2], the concentration for half-maximal inhibition (IC50) was 5.4 µM.
With `C=C(Cn1cc(-c2ccc(F)cc2)nn1)[C@@H]1CC[C@]2(C(=O)O)CC[C@]3(C)[C@H](CC[C@@H]4[C@@]5(C)CC[C@H](O)C(C)(C)[C@@H]5CC[C@]43C)[C@@H]12`, the IC50 in the assay with HL-60 turned out to be 1.7 µM.
Take `CC1(C)CC[C@]2(C(=O)OCc3cn(-c4ccc([N+](=O)[O-])cc4)nn3)CC[C@]3(C)C(=CC[C@@H]4[C@@]5(C)CC[C@H](O)C(C)(C)[C@@H]5CC[C@]43C)[C@@H]2C1`: the IC50 in [3] turned out to be 4.97 µM; in the assay with HT-1080, 3.51 µM.
As to `C=C(C)[C@@H]1CC[C@]2(C(=O)O[Si](c3ccccc3)(c3ccccc3)C(C)(C)C)CC[C@]3(C)[C@H](CC[C@@H]4[C@@]5(C)CC[C@H](O)C(C)(C)[C@@H]5CC[C@]43C)[C@@H]12`, in [4], inhibition was half-maximal at 0.19 µM (IC50).
